Source: patent publication US6914045B2, “Glycopeptide antibiotics” (Wyeth Holdings Corporation, priority 2001, dated 2005)
≈ marks a conversion by molar mass, not a printed value.

What was measured:
Assay in all cases: in vitro antibacterial evaluation, MIC by broth dilution
Assay type in all cases: cell-based
Streptococcus sp. = conditions: broth dilution, 18 hours at 35° C.
How it was run: (§1)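 Broth dilution per NCCLS M7-A2 in Mueller-Hinton II medium, inoculum 5×10^5 CFU/mL, antibiotic range 64-0.06 μg/mL. MIC taken as lowest concentration inhibiting growth; Gram-positive panel includes recent clinical isolates resistant to methicillin, penicillin and/or vancomycin.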

Staphylococcus sp. = conditions: broth dilution, 18 hours at 35° C.; for MIC Staphylococcus aureus (GC 1131): strain GC 1131
How it was run: as §1

Escherichia coli = tested on: Escherichia coli
How it was run: as §1

Enterococcus sp. = conditions: broth dilution, 18 hours at 35° C.; for MIC Enterococcus faecalis (ATCC 29212): strain ATCC 29212; for MIC Enterococcus faecium (GC 2243): strain GC 2243; for MIC Enterococcus faecalis (GC 4552): strain GC 4552; for MIC Enterococcus faecalis (GC 4553): strain GC 4553; for MIC Enterococcus faecalis (GC 4554): strain GC 4554; for MIC Enterococcus faecium (GC 4556): strain GC 4556; for MIC Enterococcus faecium (GC 4557): strain GC 4557; for MIC Enterococcus avium (GC 4558): strain GC 4558; for MIC Enterococcus faecalis (GC 6189): strain GC 6189
How it was run: as §1

SMILES: CC(=O)n1cc(C2OCC3OC(OC4C(CO)OC(Oc5ccc(CC6NC(=O)C(C(C)c7ccccc7)NC(=O)CNC(=O)C(CO)NC(=O)C(C(O)C7CNC(=N)N7C7OC(CO)C(O)C(O)C7O)NC(=O)C(C(O)C7CNC(=N)N7)NC6=O)cc5)C(O)C4O)C(O)C(O)C3O2)c2ccccc21 (stereo not drawn) [Example 161]
- MIC Streptococcus agalactiae (GC 4564) (Streptococcus sp.; Streptococcus agalactiae (GC 4564)): 1 µg/mL (≈ 0.683 µM)
- MIC Streptococcus pneumoniae (ATCC 6301) (Streptococcus sp.; Streptococcus pneumoniae (ATCC 6301)): 0.5 µg/mL (≈ 0.341 µM)
- MIC Streptococcus pneumoniae (GC 1894) (Streptococcus sp.; Streptococcus pneumoniae (GC 1894)): 0.12 µg/mL (≈ 0.0819 µM)
- MIC Streptococcus pneumoniae (GC 4565) (Streptococcus sp.; Streptococcus pneumoniae (GC 4565)): 0.5 µg/mL (≈ 0.341 µM)
- MIC Streptococcus pyogenes (GC 4563) (Streptococcus sp.; Streptococcus pyogenes (GC 4563)): 1 µg/mL (≈ 0.683 µM)
- MIC Streptococcus pneumoniae (ATCC 6301) (Streptococcus sp.; strain ATCC 6301): 0.5 µg/mL (≈ 0.341 µM)
- MIC Streptococcus pneumoniae (GC 1894) (Streptococcus sp.; strain GC 1894): 0.12 µg/mL (≈ 0.0819 µM)
- MIC Streptococcus pyogenes (GC 4563) (Streptococcus sp.; strain GC 4563): 1 µg/mL (≈ 0.683 µM)
- MIC Streptococcus agalactiae (GC 4564) (Streptococcus sp.; strain GC 4564): 1 µg/mL (≈ 0.683 µM)
- MIC Streptococcus pneumoniae (GC 4565) (Streptococcus sp.; strain GC 4565): 0.5 µg/mL (≈ 0.341 µM)
- MIC Staphylococcus aureus (GC 1131) (Staphylococcus sp.; inoculum 5×10^5 CFU/mL): 8 µg/mL (≈ 5.46 µM)
- MIC Staphylococcus aureus (ATCC 29213) (Staphylococcus sp.; strain ATCC 29213): 4 µg/mL (≈ 2.73 µM)
- MIC Staphylococcus aureus (GC 1131) (Staphylococcus sp.): 8 µg/mL (≈ 5.46 µM)
- MIC Staphylococcus aureus (GC 3051) (Staphylococcus sp.; strain GC 3051): 8 µg/mL (≈ 5.46 µM)
- MIC Staphylococcus aureus (GC 3053) (Staphylococcus sp.; strain GC 3053): 8 µg/mL (≈ 5.46 µM)
- MIC Staphylococcus aureus (GC 4541) (Staphylococcus sp.; strain GC 4541): 4 µg/mL (≈ 2.73 µM)
- MIC Staphylococcus aureus (GC 4542) (Staphylococcus sp.; strain GC 4542): 4 µg/mL (≈ 2.73 µM)
- MIC Staphylococcus aureus-SMITH (GC 4543) (Staphylococcus sp.; strain GC 4543): 4 µg/mL (≈ 2.73 µM)
- MIC Staphylococcus aureus (GC 4544) (Staphylococcus sp.; strain GC 4544): 8 µg/mL (≈ 5.46 µM)
- MIC Staphylococcus aureus (GC 4545) (Staphylococcus sp.; strain GC 4545): 4 µg/mL (≈ 2.73 µM)
- MIC Staphylococcus haemolyticus (GC 4546) (Staphylococcus sp.; strain GC 4546): 4 µg/mL (≈ 2.73 µM)
- MIC Coagulase Negative Staphylococcus (GC 4547) (Staphylococcus sp.; strain GC 4547): 4 µg/mL (≈ 2.73 µM)
- MIC Coagulase Negative Staphylococcus (GC 4548) (Staphylococcus sp.; strain GC 4548): 2 µg/mL (≈ 1.37 µM)
- MIC Coagulase Negative Staphylococcus (GC 4549) (Staphylococcus sp.; strain GC 4549): 2 µg/mL (≈ 1.37 µM)
- MIC Coagulase Negative Staphylococcus (GC 4551) (Staphylococcus sp.; strain GC 4551): 8 µg/mL (≈ 5.46 µM)
- MIC Coagulase Negative Staphylococcus (GC 6257) (Staphylococcus sp.; strain GC 6257): 2 µg/mL (≈ 1.37 µM)
- MIC Staphylococcus aureus-SMITH (GC 4543) (Staphylococcus sp.; strain SMITH GC 4543): 4 µg/mL (≈ 2.73 µM)
- MIC Escherichia coli (ATCC 25922) (Escherichia coli; strain ATCC 25922, 18 hours at 35° C.): >64 µg/mL
- MIC Escherichia coli (GC 4559) (Escherichia coli; strain GC 4559, 18 hours at 35° C.): >64 µg/mL
- MIC Escherichia coli (GC 4560) (Escherichia coli; strain GC 4560, 18 hours at 35° C.): 2 µg/mL (≈ 1.37 µM)
- MIC Enterococcus faecalis (GC 2242) (Enterococcus sp.; Enterococcus faecalis (GC 2242)): 16 µg/mL (≈ 10.9 µM)
- MIC Enterococcus faecalis (GC 2691) (Enterococcus sp.; Enterococcus faecalis (GC 2691)): 16 µg/mL (≈ 10.9 µM)
- MIC Enterococcus faecalis (GC 3059) (Enterococcus sp.; Enterococcus faecalis (GC 3059)): 16 µg/mL (≈ 10.9 µM)
- MIC Enterococcus faecalis (ATCC 29212) (Enterococcus sp.; inoculum 5×10^5 CFU/mL): 16 µg/mL (≈ 10.9 µM)
- MIC Enterococcus faecium (GC 2243) (Enterococcus sp.; inoculum 5×10^5 CFU/mL): 16 µg/mL (≈ 10.9 µM)
- MIC Enterococcus faecalis (GC 4552) (Enterococcus sp.; inoculum 5×10^5 CFU/mL): 16 µg/mL (≈ 10.9 µM)
- MIC Enterococcus faecalis (GC 4553) (Enterococcus sp.; inoculum 5×10^5 CFU/mL): 16 µg/mL (≈ 10.9 µM)
- MIC Enterococcus faecalis (GC 4554) (Enterococcus sp.; inoculum 5×10^5 CFU/mL): 16 µg/mL (≈ 10.9 µM)
- MIC Enterococcus faecium (GC 4556) (Enterococcus sp.; inoculum 5×10^5 CFU/mL): 16 µg/mL (≈ 10.9 µM)
- MIC Enterococcus faecium (GC 4557) (Enterococcus sp.; inoculum 5×10^5 CFU/mL): 8 µg/mL (≈ 5.46 µM)
- MIC Enterococcus avium (GC 4558) (Enterococcus sp.; inoculum 5×10^5 CFU/mL): 16 µg/mL (≈ 10.9 µM)
- MIC Enterococcus faecalis (GC 6189) (Enterococcus sp.; inoculum 5×10^5 CFU/mL): 16 µg/mL (≈ 10.9 µM)
- MIC Enterococcus faecalis (ATCC 29212) (Enterococcus sp.): 16 µg/mL (≈ 10.9 µM)
- MIC Enterococcus faecalis (GC 2242) (Enterococcus sp.; strain GC 2242): 16 µg/mL (≈ 10.9 µM)
- MIC Enterococcus faecium (GC 2243) (Enterococcus sp.): 16 µg/mL (≈ 10.9 µM)
- MIC Enterococcus faecalis (GC 2691) (Enterococcus sp.; strain GC 2691): 16 µg/mL (≈ 10.9 µM)
- MIC Enterococcus faecalis (GC 3059) (Enterococcus sp.; strain GC 3059): 16 µg/mL (≈ 10.9 µM)
- MIC Enterococcus faecalis (GC 4552) (Enterococcus sp.): 16 µg/mL (≈ 10.9 µM)
- MIC Enterococcus faecalis (GC 4553) (Enterococcus sp.): 16 µg/mL (≈ 10.9 µM)
- MIC Enterococcus faecalis (GC 4554) (Enterococcus sp.): 16 µg/mL (≈ 10.9 µM)
- MIC Enterococcus faecium (GC 4556) (Enterococcus sp.): 16 µg/mL (≈ 10.9 µM)
- MIC Enterococcus faecium (GC 4557) (Enterococcus sp.): 8 µg/mL (≈ 5.46 µM)
- MIC Enterococcus avium (GC 4558) (Enterococcus sp.): 16 µg/mL (≈ 10.9 µM)
- MIC Enterococcus faecalis (GC 6189) (Enterococcus sp.): 16 µg/mL (≈ 10.9 µM)
